Experimental data from PubChem BioAssay (NCI).
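At the GI50, growth is halved. TGI: concentration producing complete growth inhibition.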

What was measured:
Assay in all cases: growth of human tumour cells (NCI), 384-well format
SK-MEL-2 melanoma = test system: SK-MEL-2 melanoma
HOP-92 NSCLC = test system: HOP-92 NSCLC
SF-268 CNS = test system: SF-268 CNS
MDA-MB-435 melanoma = test system: MDA-MB-435 melanoma
BT-549 breast = test system: BT-549 breast
CAKI-1 renal = test system: CAKI-1 renal
SF-295 CNS = test system: SF-295 CNS
ACHN renal = test system: ACHN renal
SK-MEL-28 melanoma = test system: SK-MEL-28 melanoma
SNB-19 CNS = test system: SNB-19 CNS
COLO 205 colon = test system: COLO 205 colon
CCRF-CEM leukemia = test system: CCRF-CEM leukemia
OVCAR-3 ovarian = test system: OVCAR-3 ovarian
SN12C renal = test system: SN12C renal
EKVX NSCLC = test system: EKVX NSCLC
HS 578T breast = test system: HS 578T breast
SK-MEL-5 melanoma = test system: SK-MEL-5 melanoma
HOP-62 NSCLC = test system: HOP-62 NSCLC
NCI/ADR-RES ovarian = test system: NCI/ADR-RES ovarian
HCT-116 colon = test system: HCT-116 colon
UO-31 renal = test system: UO-31 renal
786-0 renal = test system: 786-0 renal
DU-145 prostate = test system: DU-145 prostate
A549 NSCLC = test system: A549 NSCLC
SR leukemia = test system: SR leukemia
HT29 colon = test system: HT29 colon
UACC-257 melanoma = test system: UACC-257 melanoma
U251 glioblastoma = test system: U251 glioblastoma
HL-60(TB) leukemia = test system: HL-60(TB) leukemia
RPMI-8226 leukemia = test system: RPMI-8226 leukemia
UACC-62 melanoma = test system: UACC-62 melanoma
NCI-H322M lung = test system: NCI-H322M lung
MALME-3M melanoma = test system: MALME-3M melanoma
HCC-2998 colon = test system: HCC-2998 colon
MCF7 breast = test system: MCF7 breast
K-562 leukemia = test system: K-562 leukemia
MDA-MB-231 breast = test system: MDA-MB-231 breast
NCI-H522 lung = test system: NCI-H522 lung
OVCAR-5 ovarian = test system: OVCAR-5 ovarian
SK-OV-3 ovarian = test system: SK-OV-3 ovarian
KM12 colon = test system: KM12 colon
OVCAR-4 ovarian = test system: OVCAR-4 ovarian
LOX IMVI melanoma = test system: LOX IMVI melanoma
SW-620 colon = test system: SW-620 colon
NCI-H460 NSCLC = test system: NCI-H460 NSCLC
SF-539 CNS = test system: SF-539 CNS
MOLT-4 leukemia = test system: MOLT-4 leukemia

Q: What does the source list for C[C@@H]1CN(CC(=O)N2CC(C)(C)c3nc(CO)c(Cc4ccc(F)cc4)cc32)[C@@H](CN2CCOC[C@H]2C)CN1?
A: TGI (SK-MEL-2 melanoma): 14.6 µM; GI50 (HOP-92 NSCLC): 14.6 µM; TGI (HOP-92 NSCLC): 43.8 µM; GI50 (SF-268 CNS): 38.6 µM; TGI (SF-268 CNS): > 74.7 µM; GI50 (MDA-MB-435 melanoma): 47 µM; TGI (MDA-MB-435 melanoma): > 100 µM; GI50 (BT-549 breast): 0.695 µM; TGI (BT-549 breast): 27.8 µM; GI50 (CAKI-1 renal): 27.9 µM; TGI (CAKI-1 renal): 54 µM; GI50 (SF-295 CNS): 42 µM; TGI (SF-295 CNS): > 81.4 µM; GI50 (ACHN renal): 61.8 µM; TGI (ACHN renal): > 100 µM; GI50 (SK-MEL-28 melanoma): 14.1 µM; TGI (SK-MEL-28 melanoma): 33.3 µM; GI50 (SNB-19 CNS): 99.7 µM; TGI (SNB-19 CNS): > 100 µM; GI50 (COLO 205 colon): 20.5 µM; TGI (COLO 205 colon): 47 µM; GI50 (CCRF-CEM leukemia): 16.1 µM; TGI (CCRF-CEM leukemia): 42.7 µM; GI50 (OVCAR-3 ovarian): 42.5 µM; TGI (OVCAR-3 ovarian): > 83.1 µM; GI50 (SN12C renal): > 79 µM; TGI (SN12C renal): > 100 µM; GI50 (EKVX NSCLC): 29.9 µM; TGI (EKVX NSCLC): > 88.8 µM; GI50 (HS 578T breast): 7.75 µM; TGI (HS 578T breast): > 67.2 µM; GI50 (SK-MEL-5 melanoma): 1.41 µM; TGI (SK-MEL-5 melanoma): 20.2 µM; GI50 (HOP-62 NSCLC): 17.9 µM; TGI (HOP-62 NSCLC): > 61.2 µM; GI50 (NCI/ADR-RES ovarian): > 70.9 µM; TGI (NCI/ADR-RES ovarian): > 100 µM; GI50 (HCT-116 colon): 35.6 µM; TGI (HCT-116 colon): > 91.2 µM; GI50 (UO-31 renal): 39.6 µM; TGI (UO-31 renal): > 100 µM; GI50 ([…]-0 renal): 20.4 µM; TGI (786-0 renal): 42.2 µM; GI50 (DU-145 prostate): > 73.5 µM; TGI (DU-145 prostate): > 100 µM; GI50 (A549 NSCLC): > 69.2 µM; TGI (A549 NSCLC): > 100 µM; GI50 (SR leukemia): 15.1 µM; TGI (SR leukemia): 28.5 µM; GI50 (HT29 colon): 19.3 µM; TGI (HT29 colon): 36.7 µM; GI50 (UACC-257 melanoma): 16.1 µM; TGI (UACC-257 melanoma): 29.7 µM; GI50 (U251 glioblastoma): 28.1 µM; TGI (U251 glioblastoma): 62.4 µM; GI50 (HL-60(TB) leukemia): 4.54 µM; TGI (HL-60(TB) leukemia): 18.9 µM; GI50 (RPMI-8226 leukemia): 23.1 µM; TGI (RPMI-8226 leukemia): 38 µM; GI50 (UACC-62 melanoma): 27.9 µM; TGI (UACC-62 melanoma): > 69 µM; GI50 (NCI-H322M lung): 33.5 µM; TGI (NCI-H322M lung): > 73.1 µM; GI50 (MALME-3M melanoma): 0.0411 µM; TGI (MALME-3M melanoma): 2.61 µM; GI50 (HCC-2998 colon): 15.8 µM; TGI (HCC-2998 colon): 29.8 µM; GI50 (MCF7 breast): 35.2 µM; TGI (MCF7 breast): 79.5 µM; GI50 (K-562 leukemia): 16.8 µM; TGI (K-562 leukemia): 30.9 µM; GI50 (MDA-MB-231 breast): 0.103 µM; TGI (MDA-MB-231 breast): 2.39 µM; GI50 (NCI-H522 lung): 14.2 µM; TGI (NCI-H522 lung): 32.4 µM; GI50 (OVCAR-5 ovarian): 38.7 µM; TGI (OVCAR-5 ovarian): 99.8 µM; GI50 (SK-OV-3 ovarian): < 0.0207 µM; TGI (SK-OV-3 ovarian): 4.32 µM; GI50 (KM12 colon): 28.2 µM; TGI (KM12 colon): 63.8 µM; GI50 (OVCAR-4 ovarian): 0.015 µM; TGI (OVCAR-4 ovarian): 0.112 µM; GI50 (LOX IMVI melanoma): 17.6 µM; TGI (LOX IMVI melanoma): 31.5 µM; GI50 (SW-620 colon): 53.5 µM; TGI (SW-620 colon): 97.4 µM; GI50 (NCI-H460 NSCLC): 26 µM; TGI (NCI-H460 NSCLC): 56.1 µM; GI50 (SF-539 CNS): 32.4 µM; TGI (SF-539 CNS): 67.2 µM; GI50 (MOLT-4 leukemia): 18.5 µM; TGI (MOLT-4 leukemia): 35.6 µM
